Reference: ChEMBL document CHEMBL5725372, “Inhibitors of sodium glucose cotransporter 1” (2017)

Biological target: T1, Sodium/glucose cotransporter 2 (Homo sapiens, UniProt P31639)
T1 sequence (P31639 whole entry): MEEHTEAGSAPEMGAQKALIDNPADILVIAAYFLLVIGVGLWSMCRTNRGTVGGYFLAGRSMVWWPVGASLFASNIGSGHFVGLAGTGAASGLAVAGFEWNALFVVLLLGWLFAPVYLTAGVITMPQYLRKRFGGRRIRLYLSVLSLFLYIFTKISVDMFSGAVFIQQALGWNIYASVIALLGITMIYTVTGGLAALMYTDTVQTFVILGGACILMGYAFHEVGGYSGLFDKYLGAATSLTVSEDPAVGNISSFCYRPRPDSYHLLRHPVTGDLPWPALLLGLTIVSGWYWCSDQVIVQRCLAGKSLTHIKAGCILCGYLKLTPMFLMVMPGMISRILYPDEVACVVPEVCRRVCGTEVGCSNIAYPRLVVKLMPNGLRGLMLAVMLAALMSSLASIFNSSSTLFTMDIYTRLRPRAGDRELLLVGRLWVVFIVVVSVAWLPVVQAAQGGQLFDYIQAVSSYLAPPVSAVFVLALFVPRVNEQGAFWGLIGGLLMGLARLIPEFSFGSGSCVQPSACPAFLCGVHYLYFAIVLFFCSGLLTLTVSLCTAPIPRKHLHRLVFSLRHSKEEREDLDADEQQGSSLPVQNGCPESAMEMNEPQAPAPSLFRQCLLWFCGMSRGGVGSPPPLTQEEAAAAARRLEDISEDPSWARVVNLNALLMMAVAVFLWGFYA
Assay: In Vitro Human SGLT2 Inhibition Assay: Human sodium/glucose co-transporter type 2 (SGLT2; accession number P31639; GI:400337) was cloned into pIRESpuro2 vector for mammalian expression (construct: HA-SGLT2-pIRESpuro2). HEK293 cells were transfected with the human HA-SGLT2-pIRESpuro2 vector and the bulk stable cell line was selected in presence of 0.5 μg/mL of puromycin. Human HA-SGLT2 cells were maintained in DMEM media containing 10% FBS, 1% GPS and 0.5 μg/mL of puromycin. The HEK293 cells expressing the human HA-SGLT2 were seeded in 384 well plates (30,000 cells/well) in DMEM media containing 10% FBS, 1% GPS and 0.5 μg/mL of puromycin, then incubated overnight at 37 C, 5% CO2. Cells were then washed with uptake buffer (140 mM NaCl, 2 mM KCl, 1 mM CaCl2, 1 mM MgCl2, 10 mM HEPES, 5 mM Tris, 1 mg/mL bovine serum albumin (BSA), pH 7.3). Twenty microliters of uptake buffer with or without testing compounds were added to the cells. Then, 20 microliters of uptake buffer containing 14C-AMG (100 nCi) were added to the cells. The cell plates were incubated at 37° C., 5% CO2 for 1-2 hours. After washing the cells with uptake buffer, scintillation fluid was added (40 microliters/well) and 14C-AMG uptake was measured by counting radioactivity using a scintillation coulter ([…]; Packard Instruments).

## CS[C@H]1O[C@@H](c2ccc(C)c(Cc3ccc(OCCNC(=O)NC(C)(C)CO)cc3)c2)[C@H](O)[C@@H](O)[C@@H]1O
  IC50: < 0.01 µM
